Source: patent EP4501339A1, “POSTBIOTIC COMPOSITION FOR SKIN DISORDERS AND COSMETIC USE” (Igen Biolab Group AG, priority 2023, dated 2025)
In brackets after ≈: the same amount, converted by molar mass.

Columns and labels:
[1] = in vitro; conditions: human
[2] = tested on: 3T3 cells; assay: Dose range finding (cytotoxicity assay, MTT); type: cell-based, mouse; conditions: 3T3, 24h
Experimental: - Prior to the phototoxicity assay, solubility of the composition was determined, it was decided to start from 20 mg/mL in culture media. Starting from this concentration, a dose range finding experiment (cytotoxicity assay) was performed. Starting from 20 mg/mL in culture media, eight concentrations were prepared in 1/10 dilutions: 20 mg/mL; 2 mg/mL; 0.2 mg/mL; 0.02 mg/mL; 0.002 mg/mL; 0.0002 mg/mL; 0.00002 mg/mL; and 0.000002 mg/mL
Starting from the limit of solubility obtained (20 mg/mL) a dose range finding experiment was set up in order to determine the IC50 value (if obtained). 3T3 cells were seeded at 10,000 cells/well in 96-well plates. Seven more concentrations were prepared following a 1/10 dilution factor. Cells were exposed to the postbiotic composition of the invention for 24h. SDS was used as positive control and viability was determined by means of MTT method.
To establish the concentrations to be tested in the phototoxicity assay, it was decided to check the postbiotic composition of the invention in a dose range finding assay using SDS as a positive control. Starting from 20 mg/mL dissolved in culture media it was decided to prepare the concentrations disclosed above in the materials and methods section. Using the Graphpad Prism 8 statistical software, we calculated the IC50 values by means of a 4-parameter logistic curve (4PL). This equation uses log(dose) values.

[3] = tested on: BALB/c 3T3 cells; assay: In vitro 3T3 NRU phototoxicity assay OECD 432; type: cell-based, mouse; conditions: for IC50: Mus musculus, BALB/c3T3, light or radiation study
Experimental: (§1) The phototoxicity assay used 3T3 cells as test system. The aim of this study was to obtain the Photo-Irritation Factor (PIF) for the postbiotic composition of the invention. 3T3 cells were treated with the postbiotic composition of the invention at eight different concentrations for 1 hour. Thereafter, half of the samples were exposed to simulated solar irradiation, whereas the other half was kept in the dark. Cell viability was calculated after 24 hours of incubation by means of the neutral red assay. The following reagents were used for these assays. Table 3 Table 3 Reagents used in this example
(§2) Balb/c 3T3 cells were used as a test system. Once thawed, cells were grown as a monolayer in DMEM culture medium supplemented with 10% Newborn Calf Serum (NCBS) and antibiotics (100 U/mL penicillin and 100 µg/mL streptomycin). The cells were incubated under standard culture conditions (37°C ± 2°C and 5% CO2/air), changing the medium every 2-3 days and sub-cultivating before reaching 80% confluency. According to the guideline, the 3T3 cells used in this study were tested for mycoplasma and only mycoplasma-free cells were used throughout the study.
(§3) To prepare the system, after thawing, cells were propagated from stock cultures and grown in culture medium for two weeks. For each assay, when cell density reached 80% confluence, they were trypsinized and counted using trypan blue strain. The day before the exposition to the postbiotic composition of the invention, the cells were tripsinized and counted. A suspension of 100,000 cells/mL was prepared and 200 µL of the suspension were added to each well in 96-well plates (20,000 cells/well), except in the peripheral wells.
(§4) According to the OECD Guideline for testing of chemicals: In Vitro 3T3 NRU phototoxicity test, protocol No 432 (2019), the maximum concentration to be analyzed is 1 mg/mL. As the cytotoxicity assay exposed the cells to the composition for 24 hours, and the phototoxicity assay includes an exposition of 1 hour, it was decided to perform the phototoxicity test starting from 1 mg/mL. From this concentration, eight concentrations were prepared in 1/3 dilutions. This solution was prepared in Hank's with Ca2+ and Mg2+ and HEPES. (C1) 1 mg/mL; (C2) 0.33 mg/mL; (C3) 0.11 mg/mL; (C4) 0.037 mg/mL; (C5) 0.0123 mg/mL; (C6) 0.0041 mg/mL; (C7) 0.00137 mg/mL; and (C8) 0.000457 mg/mL SDS was used as a positive control, 8 concentrations were prepared 400 µg/mL; 200 µg/mL; 100 µg/mL; 50 µg/mL; 25 µg/mL; 12.5 µg/mL; 6.25 µg/mL; and 3.125 µg/mL
(§5) As the exposition time involved in the phototoxicity test was shorter, it was decided to start this assay from highest concentration allowed: 1 mg/mL. Seven more concentrations were prepared in 1/3 dilutions. 3T3 cells were seeded at 20,000 cells/well in 96-well plates. Cells were exposed to the eight concentrations of the postbiotic composition of the invention defined above for 1 hour at 37°C and 5% CO2. Two 96-well plates were prepared for the postbiotic composition of the invention, the postbiotic composition and reference control (CPZ). One plate of each condition (+IRR) was irradiated for 52 minutes at 5 J/cm^2 while the other plates (- IRR) were kept in the dark for the same amount of time. Then, culture media was removed, cells were washed with Hank's without phenol red and 100 µL of neutral red were added to each well. Cells were incubated for 3 hours at 37°C and 5% CO2 and then were washed again. Finally, the neutral red was solubilized by adding 100 µL to each well of a solution of Acetic acid/Ethanol. Plates were incubated 10 minutes at room temperature and absorbance at 540 nm was measured.
(§6) Once obtained the cytotoxic results, the phototoxicity assay for the postbiotic composition of the invention was performed using 1 mg/mL as the highest dose. […] Therefore, it was decided to use the highest concentration allowed according to OECD 432 guideline. In total, 8 concentrations were prepared as disclosed in the material and methods section above. […]

[4] = In vitro 3T3 NRU phototoxicity assay OECD 432; type: cell-based, mouse; conditions: mouse, reference item; for viability at 1 h, 200 µg/mL: C1 = 200 µg/mL; for viability at 1 h, 66.67 µg/mL: C2 = 66.67 µg/mL; for viability at 1 h, 22.22 µg/mL: C3 = 22.22 µg/mL; for viability at 1 h, 7.407 µg/mL: C4 = 7.407 µg/mL; for viability at 1 h, 2.47 µg/mL: C5 = 2.47 µg/mL; for viability at 1 h, 0.823 µg/mL: C6 = 0.823 µg/mL; for viability at 1 h, 0.274 µg/mL: C7 = 0.274 µg/mL; for viability at 1 h, 0.091 µg/mL: C8 = 0.091 µg/mL
Experimental: as §1, §2, §3, §4, §5, §6

## CCCCCCCCCCCCOS(=O)(=O)[O-].[Na+] [SDS, Sodium dodecyl sulphate]
[1]
  viability: 2%
[2]
  positive control result in dose range finding: within the known range

## CN(C)CCCN1c2ccccc2Sc2ccc(Cl)cc21 [CPZ, Chlorpromazine]
[3]; irradiated plates
  IC50: 0.974 µg/mL (≈ 3.05 µM)
[3]; non-irradiated plates
  IC50: 31.4 µg/mL (≈ 98.5 µM)
[3]; mouse, 1 h
  MPE (∑i = 1^n wi PEci)/(∑i = 1^n wi): 0.401
  PIF (IC50(−Irr))/(IC50(+Irr)): 32.303
[4]; +IRR (5 J/cm^2)
  viability at 1 h, 200 µg/mL: 2.57%
  viability at 1 h, 66.67 µg/mL: 0.32%
  viability at 1 h, 22.22 µg/mL: 1.62%
  viability at 1 h, 7.407 µg/mL: 1.75%
  viability at 1 h, 2.47 µg/mL: 1.31%
  viability at 1 h, 0.823 µg/mL: 83.4%
  viability at 1 h, 0.274 µg/mL: 104%
  viability at 1 h, 0.091 µg/mL: 103%
[4]; -IRR
  viability at 1 h, 200 µg/mL: 0.41%
  viability at 1 h, 66.67 µg/mL: 0.01%
  viability at 1 h, 22.22 µg/mL: 97.8%
  viability at 1 h, 7.407 µg/mL: 104%
  viability at 1 h, 2.47 µg/mL: 105%
  viability at 1 h, 0.823 µg/mL: 105%
  viability at 1 h, 0.274 µg/mL: 104%
  viability at 1 h, 0.091 µg/mL: 102%
